Assay results taken from US20030129250A1, “Particulate compositions for improving solubility of poorly soluble agents” (Advanced Inhalation Research Inc., priority 2001, published 2003).

Experiment: Initial screening for poor solubility in aqueous media
Description: Many potential candidates were screened during this process. […] This list was then prioritized based on aqueous solubility, safety, and cost. […] This test was done by mixing […] of PBS and adding 10 mg of bulk drug. […] If the drug fully dissolved at this concentration, it was not considered for the testing.

[1] = PBS pH 7.4, 10 mg bulk drug in 0.3-1.0 L, criterion: no more soluble than 20 mg/L

| SMILES | poor solubility screening in aqueous media [1] | poor solubility screening in aqueous media (pH 7.4) |
| --- | --- | --- |
| Cc1c(OCC(F)(F)F)ccnc1C[S+]([O-])c1nc2ccccc2[nH]1 (stereo not drawn) [lansoprazole] | passed the initial screening | – |
| CN1C(C(=O)Nc2ccccn2)=C(O)c2ccccc2S1(=O)=O [piroxicam] | passed the initial screening | – |
| COc1ccc(Cl)cc1C(=O)NCCc1ccc(S(=O)(=O)NC(=O)NC2CCCCC2)cc1 [glyburide, 1-[[p-[2-(5-chloro-o-anisamido)ethyl]phenyl]-sulfonyl]-3-cyclohexylurea] | – | passed the initial screening |
